Test results published in PubChem BioAssay (NCI).
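Results reflect a 48-hour exposure of cells in 96-well plates to compound at five concentrations. GI50 = concentration required for 50% inhibition of growth. At the TGI there is no net growth.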

What was measured:
Experiment in all cases: NCI anticancer screen, dose series, 48 h
[1] = tested on: NCI-H460 lung
[2] = tested on: SNB-19 CNS
[3] = tested on: M14 melanoma
[4] = tested on: UACC-257 melanoma
[5] = tested on: MCF7 breast
[6] = tested on: UO-31 renal
[7] = tested on: SF-295 CNS
[8] = tested on: HOP-62 NSCLC
[9] = tested on: MDA-MB-435
[10] = tested on: PC-3 prostate

| Structure (SMILES) | GI50 [1] [µM] | TGI [1] [µM] | GI50 [2] [µM] | TGI [2] [µM] | GI50 [3] [µM] | TGI [3] [µM] | GI50 [4] [µM] | TGI [4] [µM] | GI50 [5] [µM] | TGI [5] [µM] | GI50 [6] [µM] | TGI [6] [µM] | GI50 [7] [µM] | TGI [7] [µM] | GI50 [8] [µM] | TGI [8] [µM] | GI50 [9] [µM] | TGI [9] [µM] | TGI [10] [µM] | GI50 [10] [µM] |
| --- | --- | --- | --- | --- | --- | --- | --- | --- | --- | --- | --- | --- | --- | --- | --- | --- | --- | --- | --- | --- |
| Cc1ccc(-c2cc(-c3ccc(C)cc3)nc(NCCNc3ccnc4cc(Cl)ccc34)n2)cc1 | 1.91 | 3.7 | 1.89 | 3.76 | 1.78 | 3.65 | 1.98 | 4.07 | 1.75 | 3.64 | 1.37 | 2.85 | 1.8 | 3.49 | 1.89 | 3.8 | 1.77 | 3.35 | – | – |
| CN(C)c1nc(=Nc2ccc3ccccc3c2)ss1 | – | > 100 | – | > 100 | – | > 100 | – | 66.8 | – | – | – | > 100 | – | – | – | > 100 | – | – | – | – |
| c1ccc(SC(CCCCC(Sc2ccccc2)Sc2ccccc2)Sc2ccccc2)cc1 | – | > 100 | – | > 100 | – | > 100 | – | > 100 | – | – | – | > 100 | – | > 100 | – | > 100 | – | – | – | – |
| COc1ccc(OC)c(NC(=O)CCC/C(CC(=O)c2ccc(O)c(OC)c2)=N\NC(=O)C[N+](C)(C)C)c1 | – | > 100 | – | > 100 | – | > 100 | – | > 100 | – | – | – | > 100 | – | > 100 | – | > 100 | – | – | – | – |
| CCCCNCC(=O)O[C@]1(CC)C(=O)OCc2c1cc1n(c2=O)Cc2cc3ccccc3nc2-1 | – | 1.68 | – | > 61.1 | – | 7.23 | – | 8.19 | – | – | – | 1.71 | – | 11.7 | – | – | – | 11.3 | > 100 | – |
| CCN=C1C=CC(=C(c2ccc(N)cc2)c2ccc(N(CC)CC)c(C)c2)C=C1 | 0.287 | 1.18 | 0.225 | 1.62 | 0.349 | 1.77 | 0.324 | 1.69 | – | – | 2.03 | 10.3 | 0.223 | 0.745 | 0.316 | 1.73 | 0.286 | 0.884 | 4.33 | 0.205 |
| COc1cc(C(=O)C/C(CCC(=O)Nc2ccccc2[N+](=O)[O-])=N\NC(=O)CC#N)ccc1O | – | > 100 | – | > 100 | – | > 100 | – | > 100 | – | – | – | > 100 | – | > 100 | – | > 100 | – | – | – | – |
| COc1ccc(C2=C(Cl)c3cc(OC)c(OC)cc3C2Cl)cc1OC (stereo unspecified) | – | 34.8 | – | 32.1 | – | 34.9 | – | 32 | – | – | – | 31.3 | – | 33.8 | – | 36.6 | – | – | – | – |
| c1ccc2c(c1)c(NCCCCN1CCCCC1)cc1c3ccccc3c(NCCCCN3CCCCC3)cc21 | 18.3 | 53.7 | 22.5 | 50.9 | – | – | 2.67 | 6.36 | 4.76 | 23.2 | 28.7 | > 100 | 22.8 | 65.4 | 10.9 | 26 | 3.42 | 12.3 | 78.5 | 13.4 |
| CCOC(=O)c1oc2ccc(OC)c3c2c1CCC3 | – | > 100 | – | > 100 | – | > 100 | – | 40 | – | – | – | > 100 | – | > 100 | – | > 100 | – | – | – | – |
| C=C1COC(/C=C(\C)CC/C=C(\C)CCl)C1 (stereo unspecified) | – | > 100 | – | > 100 | – | > 100 | – | – | – | – | – | > 100 | – | > 100 | – | > 100 | – | – | – | – |
| Brc1cccc(C2SCc3nc4ccccc4n32)c1 (stereo unspecified) | – | 99.1 | – | – | – | 53.1 | – | – | – | – | – | 25.7 | – | 86.3 | – | 40.7 | – | – | – | – |
| O=C1OC(CCCl)(c2ccccc2)CC1CN1CCOCC1 (stereo unspecified) | – | > 100 | – | – | – | 57.1 | – | 73.4 | – | – | – | > 100 | – | > 100 | – | > 100 | – | – | – | – |
| O=C(/C(=C/c1ccc([N+](=O)[O-])cc1)c1ccccc1)c1ccccc1 | 2.34 | 5.93 | 3.9 | > 100 | 3.08 | > 100 | – | – | 3.2 | > 100 | – | – | 3.56 | > 100 | 2.78 | 6.12 | – | – | > 100 | 4.28 |
| Cc1c(C#N)c(=O)[nH]c(=O)n1CCN1CCN(C(=O)NCCCCCCNC(=O)N2CCN(CCn3c(C)c(C#N)c(=O)[nH]c3=O)CC2)CC1 | – | > 100 | – | > 100 | – | > 100 | – | > 100 | – | – | – | – | – | > 100 | – | > 100 | – | – | – | – |
| CCN(C(=O)N1CCN(c2cc3c(cc2F)c(=O)c(C(=O)O)cn3C2CC2)CC1)c1nc(-c2ccc(C)cc2)cs1 | 0.356 | 11.9 | 1.03 | > 45.4 | 0.928 | > 100 | – | – | 1.31 | > 100 | 0.322 | > 100 | 0.306 | 3.76 | 1.41 | > 100 | 0.56 | > 100 | > 100 | 0.375 |
| Clc1cc(Cl)c(OCC#CI)cc1Cl | 15.5 | 30.9 | 18.3 | 43.9 | 2.13 | 5.41 | 2.79 | 11.9 | 1.69 | 3.58 | – | – | 10.4 | 23.7 | 4.08 | 14.2 | 2.02 | 5.44 | 27.9 | 12.7 |
| CCCCCCc1cc(C(=O)Nc2cccc(C(F)(F)F)c2)nc(N)n1 | – | > 100 | – | > 100 | – | > 100 | – | > 100 | – | – | – | > 100 | – | > 100 | – | > 100 | – | – | – | – |
| CS(=O)(=O)Oc1cccc(/C=N/N=C(\N)NO)c1 | – | > 100 | – | > 100 | – | > 100 | – | > 100 | – | – | – | > 100 | – | > 100 | – | > 100 | – | – | – | – |
| Nn1c(-c2ccccc2Cl)nc2ccccc2c1=O | – | > 100 | – | > 100 | – | > 100 | – | > 100 | – | – | – | > 100 | – | > 100 | – | > 100 | – | – | – | – |
| COc1cc2c(cc1OC(=O)CC(C)O)C1C(OC2=O)C(OC(C)=O)C=C2CCN(C)[C@H]21 (stereo partly specified) | – | > 100 | – | 57.5 | – | > 100 | – | > 100 | – | – | – | > 100 | – | 49.9 | – | 55.7 | – | – | – | – |
| CCCCCCCCCCCC(=O)OCCOCCOCCOCCOCCOCc1ccc(OC)cc1 | – | > 100 | – | > 100 | – | > 100 | – | > 100 | – | – | – | > 100 | – | > 100 | – | > 100 | – | – | – | – |
